# According to the supplement of paper PMC10307832:
# Legend:
# Assay in all cases: relative viability (nuclei count vs DMSO), 5 days (fraction); higher = more cells survive
# [1] = compound: CN(C)C[C@@H]1CCn2cc(c3ccccc32)C2=C(C(=O)NC2=O)c2cn(c3ccccc23)CCO1 [Ruboxistaurin] + CC(=O)Nc1cccc(-n2c(=O)n(C3CC3)c(=O)c3c(Nc4ccc(I)cc4F)n(C)c(=O)c(C)c32)c1 [Trametinib] (partner 0.02 µM)
# Method in brief: (§1)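 A single step with final 0.05% Triton X-100, 1% formaldehyde and 1 ug/ml Hoechst fixed the cells and stained nuclei 5 days after treatment. Lung cancer cell lines in 1536-well plates had been treated by pin tool the day after seeding with one drug alone or a fixed anchor-drug dose plus five library-drug doses (not always all listed) in √10 steps, and nuclei were counted on 4× images. Relative viability is the ratio of nuclei in treated wells to nuclei in vehicle wells, taken as the median of duplicate plates.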
# [2] = compound: CN(C)C[C@@H]1CCn2cc(c3ccccc32)C2=C(C(=O)NC2=O)c2cn(c3ccccc23)CCO1 [Ruboxistaurin] + C[C@]1(O)C[C@@H](c2nc(-c3ccc4ccc(-c5ccccc5)nc4c3)c3c(N)nccn32)C1 [Linsitinib] (partner 1 µM)
# Method in brief: as §1
# [3] = compound: CN(C)C[C@@H]1CCn2cc(c3ccccc32)C2=C(C(=O)NC2=O)c2cn(c3ccccc23)CCO1 [Ruboxistaurin] + Nc1nc2[nH]cc(CCc3ccc(C(=O)N[C@@H](CCC(=O)O)C(=O)O)cc3)c2c(=O)[nH]1 [Pemetrexed] (partner 0.2 µM)
# Method in brief: as §1
# [4] = compound: CN(C)C[C@@H]1CCn2cc(c3ccccc32)C2=C(C(=O)NC2=O)c2cn(c3ccccc23)CCO1 [Ruboxistaurin] + C[C@@H](Oc1cc(-c2cnn(C3CCNCC3)c2)cnc1N)c1c(Cl)ccc(F)c1Cl [Crizotinib] (partner 1 µM)
# Method in brief: as §1
# Ruboxistaurin + Olaparib = compound: CN(C)C[C@@H]1CCn2cc(c3ccccc32)C2=C(C(=O)NC2=O)c2cn(c3ccccc23)CCO1 [Ruboxistaurin] + O=C(c1cc(Cc2n[nH]c(=O)c3ccccc23)ccc1F)N1CCN(C(=O)C2CC2)CC1 [Olaparib] (partner 8 µM)
# Method in brief: as §1
Cell Line,relative viability ([1]; first compound 0.08 µM),relative viability ([1]; first compound 0.8 µM),relative viability ([1]; first compound 2.53 µM),relative viability ([1]; first compound 8 µM),relative viability ([2]; first compound 0.08 µM),relative viability ([2]; first compound 0.8 µM),relative viability ([2]; first compound 2.53 µM),relative viability ([2]; first compound 8 µM),relative viability ([3]; first compound 0.08 µM),relative viability ([3]; first compound 0.8 µM),relative viability ([3]; first compound 2.53 µM),relative viability ([3]; first compound 8 µM),relative viability ([4]; first compound 0.08 µM),relative viability ([4]; first compound 0.8 µM),relative viability ([4]; first compound 2.53 µM),relative viability ([4]; first compound 8 µM),relative viability (Ruboxistaurin + Olaparib; first compound 0.08 µM),relative viability (Ruboxistaurin + Olaparib; first compound 0.8 µM),relative viability (Ruboxistaurin + Olaparib; first compound 2.53 µM),relative viability (Ruboxistaurin + Olaparib; first compound 8 µM)
201T,0.739,0.705,0.764,0.747,1.03,0.874,1.06,0.891,0.31,0.327,0.311,0.31,1.05,0.972,1.08,1.05,0.821,0.837,0.852,0.909
A-427,0.88,0.692,0.752,0.548,1.1,1.08,0.992,0.925,0.994,0.926,0.958,0.923,1.01,0.676,0.911,0.732,0.728,0.672,0.558,0.534
ABC-1,–,–,–,–,0.767,0.865,0.969,0.625,–,–,–,–,1.41,0.45,1.29,0.784,1.27,0.81,1.03,1.15
BEN,1.07,0.976,1.01,0.895,1.04,0.883,0.9,0.721,0.801,0.695,0.716,0.528,0.92,0.818,0.894,0.658,1.31,0.903,1.34,0.888
CAL-12T,0.303,0.347,0.323,0.399,0.884,0.679,0.897,0.927,1.35,1.19,1.12,1.28,0.585,0.491,0.751,0.746,0.749,0.704,0.901,0.751
COR-L23,0.749,0.581,0.571,0.59,0.928,0.815,1.03,0.851,0.193,0.182,0.204,0.192,0.725,0.621,0.689,0.777,0.409,0.377,0.387,0.326
COR-L 105,0.43,0.364,0.463,0.441,1.17,0.75,0.78,0.696,1.3,0.912,1.05,1.26,0.8,0.828,0.868,0.664,0.802,0.597,0.707,0.677
ChaGo-K-1,0.972,0.814,0.941,0.956,–,–,–,–,0.272,0.247,0.26,0.267,1.21,1.05,1.11,1.2,0.431,0.39,0.433,0.444
EKVX,0.359,0.287,0.336,0.281,1.08,0.948,0.971,0.931,0.413,0.401,0.373,0.393,1.09,0.989,0.983,0.895,0.923,0.692,0.929,0.861
EMC-BAC-2,0.94,0.841,0.775,0.721,0.885,0.775,0.773,0.739,0.419,0.415,0.384,0.383,0.741,0.713,0.715,0.68,0.509,0.453,0.463,0.481
EPLC-272H,0.347,0.228,0.27,0.257,1.28,1.09,1.2,1.16,0.32,0.359,0.352,0.325,0.926,0.793,0.917,0.932,0.846,0.71,0.918,0.437
H3255,0.635,0.479,0.644,0.536,1.09,0.953,0.943,0.931,0.595,0.556,0.614,0.534,1.01,0.835,0.89,0.809,0.613,0.574,0.592,0.655
HARA,0.674,0.636,0.653,0.684,1.15,0.922,1.08,0.657,0.262,0.297,0.236,0.248,1.07,0.919,1.18,1.03,1.01,0.895,0.819,0.538
HCC-15,0.401,0.388,0.409,0.417,0.841,0.834,0.852,0.776,0.224,0.207,0.221,0.2,0.815,0.794,0.754,0.845,0.792,0.651,0.777,0.867
HCC-44,1.02,1,1.06,1.21,0.643,0.645,0.674,0.635,0.666,0.556,0.642,0.638,0.756,0.674,0.867,0.853,0.978,0.942,0.983,1.04
HCC-78,0.886,0.711,0.738,0.912,0.531,0.501,0.455,0.482,0.85,0.91,0.828,0.945,0.31,0.351,0.323,0.291,0.821,0.762,0.935,0.746
HCC-366,0.393,0.331,0.349,0.321,0.691,0.526,0.68,0.33,0.181,0.182,0.158,0.209,0.58,0.518,0.605,0.536,0.4,0.364,0.372,0.269

Cell Line,relative viability ([1]; first compound 0.08 µM),relative viability ([1]; first compound 0.8 µM),relative viability ([1]; first compound 2.53 µM),relative viability ([1]; first compound 8 µM),relative viability ([2]; first compound 0.08 µM),relative viability ([2]; first compound 0.8 µM),relative viability ([2]; first compound 2.53 µM),relative viability ([2]; first compound 8 µM),relative viability ([3]; first compound 0.08 µM),relative viability ([3]; first compound 0.8 µM),relative viability ([3]; first compound 2.53 µM),relative viability ([3]; first compound 8 µM),relative viability ([4]; first compound 0.08 µM),relative viability ([4]; first compound 0.8 µM),relative viability ([4]; first compound 2.53 µM),relative viability ([4]; first compound 8 µM),relative viability (Ruboxistaurin + Olaparib; first compound 0.08 µM),relative viability (Ruboxistaurin + Olaparib; first compound 0.8 µM),relative viability (Ruboxistaurin + Olaparib; first compound 2.53 µM),relative viability (Ruboxistaurin + Olaparib; first compound 8 µM)
HCC-827,0.555,0.499,0.517,0.533,0.933,0.962,0.951,1,0.265,0.252,0.268,0.28,0.977,0.907,1.01,0.96,0.655,0.647,0.695,0.624
HOP-62,0.401,0.33,0.361,0.361,0.972,0.963,0.869,1,0.299,0.241,0.298,0.31,0.882,1.05,0.741,1.05,0.499,0.443,0.541,0.611
IA-LM,–,–,–,–,0.734,0.277,0.6,0.685,–,–,–,–,1.01,–,0.967,0.938,0.871,0.836,0.842,0.912
LC-2-ad,0.953,0.877,0.928,0.984,0.931,0.862,0.912,0.742,0.259,0.284,0.285,0.282,0.458,0.406,0.476,0.638,0.711,0.626,0.697,0.752
LCLC-97TM1,0.207,0.141,0.203,0.154,0.169,–,0.166,0.151,0.193,0.172,0.198,0.16,0.358,–,0.474,0.404,0.355,0.334,0.352,0.341
LCLC-103H,0.703,0.621,0.633,0.678,1.13,0.834,0.883,1.15,0.47,0.479,0.434,0.608,1.21,0.929,0.905,1.01,0.735,0.69,0.729,0.676
LK-2,0.65,0.933,0.85,0.589,0.493,0.589,0.717,0.261,0.266,0.346,0.309,0.242,0.249,0.242,0.278,0.257,0.741,0.687,0.649,0.505
LOU-NH91,0.802,0.751,0.807,0.773,1.11,0.902,0.994,0.883,0.398,0.405,0.407,0.434,0.806,0.694,0.757,0.77,0.926,0.87,0.941,0.949
LU99A,0.492,0.509,0.508,0.472,0.614,0.455,0.463,0.33,0.159,0.179,0.171,0.203,0.507,0.506,0.503,0.506,0.27,0.259,0.253,0.218
NCI-H522,0.767,0.586,0.754,0.764,–,–,–,–,1.06,0.791,1.18,1.02,–,–,–,–,0.71,0.676,0.637,0.728
NCI-H727,0.361,0.395,0.384,0.367,0.312,0.288,0.296,0.267,–,–,–,–,0.789,0.696,0.693,0.745,0.625,0.7,0.722,0.521
NCI-H1395,1.15,0.846,0.988,1.09,1.22,1.02,1.26,1.08,1.04,0.768,0.917,0.782,–,–,–,–,0.465,0.397,0.466,0.474
NCI-H1650,0.698,0.447,0.613,0.571,–,–,–,–,0.425,0.362,0.373,0.454,0.991,0.837,1.19,1.04,0.854,0.709,0.907,0.981
NCI-H1703,–,–,–,–,0.756,0.464,0.957,0.82,–,–,–,–,0.662,0.574,0.582,0.322,0.447,0.411,0.622,0.305
NCI-H1793,0.444,–,0.497,0.517,1.07,0.818,0.985,1.14,1.13,–,1.03,0.876,–,–,–,–,0.875,–,1.17,0.873
NCI-H2170,0.932,0.828,0.931,0.928,–,–,–,–,0.274,0.263,0.248,0.303,1.15,1.13,1.2,1.21,0.659,0.499,0.588,0.534
SW 900,0.785,0.972,0.912,0.693,–,–,–,–,0.479,0.421,0.489,0.491,–,–,–,–,0.891,0.829,1.03,0.964
